Assays:
[1] = target: T1, soluble human FcRn (shFcRn) (Homo sapiens, UniProt P55899); assay: Peptide-IgG competition ELISA; assay type: binding; settings: 3 nM human IgG, pH 6, 37° C. 2 hours
T1 construct: made in house; host or cells: Chinese hamster ovary (CHO) cells, glutamine synthetase expression system
Method: The wells were coated with 100 μl/well of 1 μg/ml biotinylated-shFcRn in Buffer A. The plate was sealed and incubated at 37° C. for 2 hours. Afterwards, the plate was washed with 200 μl/well of Buffer B (Buffer B: 100 mM MES pH 6, 150 mM NaCl, 0.5% BSA IgG-free (Jackson ImmunoResearch, West Grove, Pa.), 0.05% Tween-20). […] To allow for mixing, the plate was rocked for 2 minutes, sealed and incubated at 37° C. for 2 hours. […] The plate was covered, incubated for 30 minutes at room temperature and washed 4 times with 200 μl/well of ice-cold buffer B. SureBlue TMB substrate solution (100 μl/well, KPL, Gaithersburg, Md.) was added and the plate was allowed to incubate at room temperature until color developed, which took 5 to 10 minutes. Once color developed, 100 μl/well of TMB stop solution (KPL, Gaithersburg, Md.) was added and the absorbance was measured at 450 nm.

[2] = Solubility by visual inspection of lyophilized peptide in buffer; assay type: physicochemical; settings: for Solubility at 50 mg/mL peptide in PBS + 40 mM sodium phosphate, pH 7.4, after 30 minutes at room temperature: PBS + 40 mM sodium phosphate pH 7.4, 30 minutes room temperature; for Solubility at 100 mg/mL peptide in 100 mM sodium phosphate, pH 7.4, after 30 minutes at room temperature: 100 mM sodium phosphate pH 7.4, 30 minutes room temperature
[3] = Pharmacokinetics in SD rats (serum peptide concentration by LCMS); assay type: in vivo; settings: rat, sc, single subcutaneous dose, peptide concentration 30 mg/mL; for level at 0.5 h: timepoint 0.5 hr; for level at 2 h: timepoint 2.00 hr; for level at 4 h: timepoint 4.00 hr; for level at 6 h: timepoint 6.00 hr; for level at 24 h: timepoint 24.00 hr; for level at 48 h: timepoint 48.00 hr
Method: SD Rats (3 per group) were treated with a single subcutaneous dose of either Peptide 283 or Peptide 310, at a peptide concentration of 30 mg/mL. Blood was collected at 0.5, 2, 4, 6, 24, 48 hours, serum was prepared and the peptide concentrations in serum were determined by LCMS.

IC50 [1] [nM]	Solubility at 50 mg/mL peptide in PBS + 40 mM sodium phosphate, pH 7.4, after 30 minutes at room temperature [2]	Solubility at 100 mg/mL peptide in 100 mM sodium phosphate, pH 7.4, after 30 minutes at room temperature [2]	level at 0.5 h [3] [ng/mL]	level at 2 h [3] [ng/mL]	level at 4 h [3] [ng/mL]	level at 6 h [3] [ng/mL]	level at 24 h [3] [ng/mL]	level at 48 h [3] [ng/mL]	SMILES
1.5 ± 0.7	Insoluble	Insoluble							CC(C)C[C@H]1C(=O)N[C@@H](Cc2ccc(O)cc2)C(=O)N2CCC[C@H]2C(=O)N[C@H](C(=O)N[C@@H](CCCNC(=N)N)C(N)=O)CSSC(C)(C)[C@H](NC(=O)[C@H](Cc2ccccc2)NC(=O)[C@H](CCCNC(=N)N)NC(=O)CCC(=O)N[C@@H](CCCNC(=N)N)C(=O)N[C@@H](Cc2ccccc2)C(=O)N[C@@H]2C(=O)N[C@@H]([C@@H](C)O)C(=O)NCC(=O)N[C@@H](Cc3c[nH]cn3)C(=O)N[C@@H](Cc3ccccc3)C(=O)NCC(=O)N(C)CC(=O)N(C)[C@@H](CC(C)C)C(=O)N[C@@H](Cc3ccc(O)cc3)C(=O)N3CCC[C@H]3C(=O)N[C@H](C(=O)N[C@@H](CCCNC(=N)N)C(N)=O)CSSC2(C)C)C(=O)N[C@@H]([C@@H](C)O)C(=O)NCC(=O)N[C@@H](Cc2c[nH]cn2)C(=O)N[C@@H](Cc2ccccc2)C(=O)NCC(=O)N(C)CC(=O)N1C [Peptide No. 311]
1.8 ± 1.1	Soluble	Soluble	137 ± 60	183 ± 81	440 ± 156	557 ± 268	117 ± 36	37 ± 15	CC(C)C[C@H]1C(=O)N[C@@H](Cc2ccc(O)cc2)C(=O)N2CCC[C@H]2C(=O)N[C@H](C(=O)N[C@@H](CCCCN)C(N)=O)CSSC(C)(C)[C@H](NC(=O)[C@H](Cc2ccccc2)NC(=O)[C@H](CCCNC(=N)N)NC(=O)CCC(=O)N[C@@H](CCCNC(=N)N)C(=O)N[C@@H](Cc2ccccc2)C(=O)N[C@@H]2C(=O)N[C@@H]([C@@H](C)O)C(=O)NCC(=O)N[C@@H](Cc3c[nH]cn3)C(=O)N[C@@H](Cc3ccccc3)C(=O)NCC(=O)N(C)CC(=O)N(C)[C@@H](CC(C)C)C(=O)N[C@@H](Cc3ccc(O)cc3)C(=O)N3CCC[C@H]3C(=O)N[C@H](C(=O)N[C@@H](CCCCN)C(N)=O)CSSC2(C)C)C(=O)N[C@@H]([C@@H](C)O)C(=O)NCC(=O)N[C@@H](Cc2c[nH]cn2)C(=O)N[C@@H](Cc2ccccc2)C(=O)NCC(=O)N(C)CC(=O)N1C [Peptide No. 310]
	Insoluble	Insoluble	23 ± 14	50 ± 16	66 ± 42	68 ± 34	41 ± 6	19 ± 4	CC(C)C[C@H]1C(=O)N[C@@H](Cc2ccc(O)cc2)C(=O)N2CCC[C@H]2C(=O)N[C@H](C(N)=O)CSSC(C)(C)[C@H](NC(=O)[C@H](Cc2ccccc2)NC(=O)[C@H](CCCNC(=N)N)NC(=O)CCC(=O)N[C@@H](CCCNC(=N)N)C(=O)N[C@@H](Cc2ccccc2)C(=O)N[C@@H]2C(=O)N[C@@H]([C@@H](C)O)C(=O)NCC(=O)N[C@@H](Cc3c[nH]cn3)C(=O)N[C@@H](Cc3ccccc3)C(=O)NCC(=O)N(C)CC(=O)N(C)[C@@H](CC(C)C)C(=O)N[C@@H](Cc3ccc(O)cc3)C(=O)N3CCC[C@H]3C(=O)N[C@H](C(N)=O)CSSC2(C)C)C(=O)N[C@@H]([C@@H](C)O)C(=O)NCC(=O)N[C@@H](Cc2c[nH]cn2)C(=O)N[C@@H](Cc2ccccc2)C(=O)NCC(=O)N(C)CC(=O)N1C [Peptide No. 283]

Reference: patent US20100048488A1, “IMMUNOMODULATORY PEPTIDES” (Syntonix Pharmaceuticals, Inc., priority 2008, published 2010)
